# Legend:
# HCT116 cells [1] = test: Annexin V-FITC/PI apoptosis flow cytometry, HCT116; format: cell-based, human; details: representative dot plot, Figure 4C, IC50, 72 h
# Description: (§1) To analyze the number of cells in early apoptosis, late apoptosis, or necrosis, A549, MiaPaca-2, and HCT-116 cell lines were cultured in 6-well plates with a seeding density of 1 × 10^5 cells per well. These cells were then treated with selected compounds (4, 5, and 8) at their respective IC50 concentrations and incubated for 72 h. Subsequently, a commercially available kit, the FITC: Annexin V Apoptosis Detection Kit I from BD Biosciences Pharmingen in San Jose, CA, USA, was utilized to assess apoptosis. After 72 h the cells were harvested, washed, and labeled with Annexin V-FITC and propidium iodide (PI) following the manufacturer’s protocol (Becton Dickinson), as previously described. The stained cells were analyzed by flow cytometry. The cells were identified as early apoptotic (Annexin V+/PI−) or late apoptotic/necrotic (Annexin V+/PI+).
# HCT116 cells [2] = test: Cell cycle analysis by flow cytometry, HCT116; format: cell-based, human; details: IC50, 24 h, compared to the control
# Description: (§2) In brief, cells were seeded at a density of 1 × 10^5 cells/well on a six-well plate and allowed to adhere for 24 h. […] Both population cells (the attached and detached) were collected and centrifuged at 400× g for 5 min at 4 °C. After centrifugation, the cells were washed twice with 0.9% NaCl and subsequently fixed in 500 μL of 70 % cold ethanol overnight.
# (§3) Before analysis, the fixed cells underwent another centrifugation step at 850× g for 5 min at 4 °C and were washed with PBS. Following the washes, the cells were incubated with 50 μL of RNase (100 μg/mL) and 200 μL of propidium iodide (PI) (50 μg/mL) at 37 °C for 30 min in the dark. Finally, 100 μL of PBS was added to each sample. Flow cytometry (Becton Dickinson FACS Verse, Franklin Lakes, NJ, USA) was then used to analyze the cell cycle distribution, identifying cells in various stages including sub-G1, G0/G1, S, and G2/M phases. Each assay was performed in quadruplicate.
# A549 (lung cancer) = test: MTT assay, A549 cells; format: cell-based, human; details: Homo sapiens, A549, 72 h, read-out: IC50 A549
# Outline: (§4)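 After a 72 h incubation of 1 × 10^4 cells per well with compound, absorbance from MTT reduction was converted to percent of the medium-only control.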
# S. aureus ATCC 29213 = test: MIC broth microdilution; format: cell-based; details: Staphylococcus aureus, ATCC29213, 19 h, read-out: MIC S. aureus ATCC 29213
# Outline: (§5)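 Two-fold serial broth microdilution in Mueller-Hinton II broth, final inoculum adjusted to […]. Compounds dissolved in DMSO, final solvent at most 1%.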
# S. aureus ATCC 25923 = test: MIC broth microdilution; format: cell-based; details: Staphylococcus aureus, ATCC25923, 19 h, read-out: MIC S. aureus ATCC 25923
# Outline: as §5
# S. aureus NCTC 4163 = test: MIC broth microdilution; format: cell-based; details: Staphylococcus aureus, NCTC4163, 19 h, read-out: MIC S. aureus NCTC 4163
# Outline: as §5
# [3] = tested on: S. epidermidis ATCC 35984; test: MIC broth microdilution; format: cell-based; details: Staphylococcus epidermidis, ATCC35984, 19 h, read-out: MIC S. epidermidis ATCC 35984
# Outline: as §5
# P. aeruginosa ATCC 15442 = test: MIC broth microdilution; format: cell-based; details: Pseudomonas aeruginosa, ATCC15442, 19 h, read-out: MIC P. aeruginosa ATCC 15442
# Outline: as §5
# S. aureus ATCC 6538 = test: MIC broth microdilution; format: cell-based; details: Staphylococcus aureus, ATCC6538, 19 h, read-out: MIC S. aureus ATCC 6538
# Outline: as §5
# E. coli ATCC 25922 = test: MIC broth microdilution; format: cell-based
# Outline: as §5
# [4] = tested on: S. epidermidis ATCC 12228; test: MIC broth microdilution; format: cell-based; details: Staphylococcus epidermidis, ATCC12228, 19 h, read-out: MIC S. epidermidis ATCC 12228
# Outline: as §5
# [5] = tested on: MDA-MB-231 (breast cancer); test: MTT assay, MDA-MB-231 cells; format: cell-based, human
# Outline: (§6)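 Cells seeded at 1 × 10^4 per well were exposed to compounds for 72 h; media: MEM for HCT116, DMEM High Glucose for MDA-MB-231 and HaCaT, RPMI for PC3, each with 10% FBS and 20 mM HEPES. Viability given as MTT reduction relative to medium-only control.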
# [6] = tested on: HaCaT (immortalized human keratinocytes); test: MTT assay, HaCaT normal cells; format: cell-based; details: Homo sapiens, HaCaT, 72 h, read-out: IC50 HaCaT (Table 3)
# Outline: as §6
# PC3 (prostate cancer) = test: MTT assay, PC3 cells; format: cell-based, human
# Outline: as §6
# MiaPaCa-2 cells = test: Annexin V-FITC/PI apoptosis flow cytometry, MiaPaCa-2; format: cell-based, human; details: representative dot plot, Figure 4B, IC50, 72 h
# Description: as §1
# A549 cells [7] = test: Annexin V-FITC/PI apoptosis flow cytometry, A549; format: cell-based, human; details: representative dot plot, Figure 4A, IC50, 72 h
# Description: as §1
# [8] = tested on: MiaPaCa-2 (pancreas cancer); test: MTT assay, MiaPaCa-2 cells; format: cell-based, human
# Outline: as §4
# A549 cells [9] = test: Cell cycle analysis by flow cytometry, A549; format: cell-based, human; details: compound at IC50, 24 h
# Description: as §2, §3
# cancer cell lines = test: MTT assay, summary over several cell lines; format: cell-based, human; details: Homo sapiens, read-out: IC50 range toward four cancerous cell lines
# Description: The human cell lines, such as A549 (lung cancer), MDA-MB-231 (breast cancer), MiaPaca-2 (pancreatic cancer), PC3 (metastatic prostate cancer), HCT-116 (colon carcinoma), and HaCaT (immortalized keratinocytes), were sourced from the American Type Culture Collection (ATCC) in Rockville, USA. Culturing conditions varied as follows: HCT116 cells were cultured in MEM (ThermoSci, Waltham, MA, USA), A549, MDA-MB-231, MiaPaca, HaCaT cells in DMEM High Glucose and PC3 cells were cultured in RPMI (Biowest SAS, Nuaillé, France). The growth medium consisted of 10% fetal bovine serum (FBS, Sigma-Aldrich, St. Louis, MO, USA), 20 mM HEPES (Biowest, Nuaillé, France), and antibiotics (100 U/mL of penicillin and 100 μg/mL of streptomycin) from Gibco, Grand Island, NY, USA. […] These compounds were added to 96-well plates containing study cells (1 × 10^4 cells per well) and incubated for 72 h. […] Cell absorbance results were incorporated into the formula for calculating the relative MTT level (%), enabling the assessment of cell viability following exposure to the test compounds. The cell viability percentage represents the MTT reduction in cells treated with the test compounds compared to the control sample, where only the medium was added to the cells.
# HCT116 (colon cancer) = test: MTT assay, HCT116 cells; format: cell-based, human
# Outline: as §6
# [10] = SI = IC50 for normal cell line (HaCaT)/IC50 cancer cell line
smiles,measurement,setting,value
"O=C(NCCCl)NCCCCN1c2cc(Cl)ccc2Sc2cc3ccccc3nc21 [Compound 21, 1-(4-(8-Chloroquino[3,2-b]benzo[1,4]thiazin-6-yl)butyl)-3-(2-chloroethyl)urea]",HCT-116: Alive,HCT116 cells [1],17.91%
same,HCT-116: Early Apoptotic,HCT116 cells [1],1.71%
same,HCT-116: Necrotic,HCT116 cells [1],5.16%
same,HCT-116: Necrotic/Late Apoptotic,HCT116 cells [1],75.22%
same,"increase in the cell amount at the sub-G1 phase, HCT116",HCT116 cells [2],12 fold
same,"increase in the number of cells in the G2/M phase, HCT116",HCT116 cells [2],approximately 1.3 fold
same,"increase in the number of cells in the S phase, HCT116",HCT116 cells [2],approximately 2 fold
same,IC50,A549 (lung cancer),6.98 ± 1.2 µM
same,MIC,S. aureus ATCC 29213,2 mg/L
same,MIC,S. aureus ATCC 25923,2 mg/L
same,MIC,S. aureus NCTC 4163,2 mg/L
same,MIC,[3],2 mg/L
same,MIC,P. aeruginosa ATCC 15442,> 256 mg/L
same,MIC,S. aureus ATCC 6538,2 mg/L
same,MIC E. coli ATCC 25922,"E. coli ATCC 25922; 19 h, 35 °C",8 mg/L
same,MIC,"E. coli ATCC 25922; Escherichia coli, ATCC25922, 19 h, read-out: MIC E. coli ATCC 25922",8 mg/L
same,MIC,[4],2 mg/L
same,IC50,"[5]; Homo sapiens, MDA-MB-231, 72 h, read-out: IC50 MDA",7.4 ± 1.2 µM
same,SI MDA,[5]; [10],0.15
same,IC50,[6],1.1 ± 0.3 µM
same,IC50,"PC3 (prostate cancer); Homo sapiens, PC-3, 72 h, read-out: IC50 PC3",76.6 ± 9.8 µM
same,SI PC3,PC3 (prostate cancer); [10],0.1
same,MiaPaca: Alive,MiaPaCa-2 cells,8.66%
same,MiaPaca: Early Apoptotic,MiaPaCa-2 cells,2.45%
same,MiaPaca: Necrotic,MiaPaCa-2 cells,37.47%
same,MiaPaca: Necrotic/Late Apoptotic,MiaPaCa-2 cells,51.42%
same,A549: Alive,A549 cells [7],3.27%
same,A549: Early Apoptotic,A549 cells [7],1.31%
same,A549: Necrotic,A549 cells [7],15.90%
same,A549: Necrotic/Late Apoptotic,A549 cells [7],79.52%
same,IC50,"[8]; Homo sapiens, MIA PaCa-2, 72 h, read-out: IC50 MiaPaCa-2",6.4 ± 2.4 µM
same,SI MiaPaCa-2,[8]; [10],0.2
same,percentage of Sub G1 phase A549 cells,A549 cells [9],27.6%
same,IC50,cancer cell lines,6.4 to 11.3 µM
same,IC50,"HCT116 (colon cancer); Homo sapiens, HCT-116, 72 h, read-out: IC50 HCT116",11.3 ± 2.2 µM
same,SI HCT116,HCT116 (colon cancer); [10],0.1
